Experimental data reported in patent US8658685B2, “Methods for treatment of kallikrein-related disorders” (Activesite Pharmaceuticals, Inc., priority 2008, dated 2014).

B1: complement I inhibitors: inhibitors of the kallikrein pathway; probably complement 1 inhibitor (C1-INH) (protein, UniProt P05155 23-500, looked up)
Plasma protease C1 inhibitor: NPNATSSSSQDPESLQDRGEGKVATTVISKMLFVEPILEVSSLPTTNSTTNSATKITANTTDEPTTQPTTEPTTQPTIQPTQPTTQLPTDSPTQPTTGSFCPGPVTLCSDLESHSTEAVLGDALVDFSLKLYHAFSAMKKVETNMAFSPFSIASLLTQVLLGAGENTKTNLESILSYPKDFTCVHQALKGFTTKGVTSVSQIFHSPDLAIRDTFVNASRTLYSSSPRVLSNNSDANLELINTWVAKNTNNKISRLLDSLPSDTRLVLLNAIYLSAKWKTTFDPKKTRMEPFHFKNSVIKVPMMNSKKYPVAHFIDQTLKAKVGQLQLSHNLSLVILVPQNLKHRLEDMEQALSPSVFKAIMEKLEMSKFQPTLLTLPRIKVTTSQDMLSIMEKLEFFDFSYDLNLCGLTEDPDLQVSAMQHQTVLELTETGVEAAAASAISVARTLLVFEVQQPFLFVLWDQQHKFPVFMGRVYDPRA
B2: α2-macroglobulin: inhibitor of the kallikrein pathway (protein, UniProt P01023 24-1474, looked up)
Alpha-2-macroglobulin: SVSGKPQYMVLVPSLLHTETTEKGCVLLSYLNETVTVSASLESVRGNRSLFTDLEAENDVLHCVAFAVPKSSSNEEVMFLTVQVKGPTQEFKKRTTVMVKNEDSLVFVQTDKSIYKPGQTVKFRVVSMDENFHPLNELIPLVYIQDPKGNRIAQWQSFQLEGGLKQFSFPLSSEPFQGSYKVVVQKKSGGRTEHPFTVEEFVLPKFEVQVTVPKIITILEEEMNVSVCGLYTYGKPVPGHVTVSICRKYSDASDCHGEDSQAFCEKFSGQLNSHGCFYQQVKTKVFQLKRKEYEMKLHTEAQIQEEGTVVELTGRQSSEITRTITKLSFVKVDSHFRQGIPFFGQVRLVDGKGVPIPNKVIFIRGNEANYYSNATTDEHGLVQFSINTTNVMGTSLTVRVNYKDRSPCYGYQWVSEEHEEAHHTAYLVFSPSKSFVHLEPMSHELPCGHTQTVQAHYILNGGTLLGLKKLSFYYLIMAKGGIVRTGTHGLLVKQEDMKGHFSISIPVKSDIAPVARLLIYAVLPTGDVIGDSAKYDVENCLANKVDLSFSPSQSLPASHAHLRVTAAPQSVCALRAVDQSVLLMKPDAELSASSVYNLLPEKDLTGFPGPLNDQDNEDCINRHNVYINGITYTPVSSTNEKDMYSFLEDMGLKAFTNSKIRKPKMCPQLQQYEMHGPEGLRVGFYESDVMGRGHARLVHVEEPHTETVRKYFPETWIWDLVVVNSAGVAEVGVTVPDTITEWKAGAFCLSEDAGLGISSTASLRAFQPFFVELTMPYSVIRGEAFTLKATVLNYLPKCIRVSVQLEASPAFLAVPVEKEQAPHCICANGRQTVSWAVTPKSLGNVNFTVSAEALESQELCGTEVPSVPEHGRKDTVIKPLLVEPEGLEKETTFNSLLCPSGGEVSEELSLKLPPNVVEESARASVSVLGDILGSAMQNTQNLLQMPYGCGEQNMVLFAPNIYVLDYLNETQQLTPEIKSKAIGYLNTGYQRQLNYKHYDGSYSTFGERYGRNQGNTWLTAFVLKTFAQARAYIFIDEAHITQALIWLSQRQKDNGCFRSSGSLLNNAIKGGVEDEVTLSAYITIALLEIPLTVTHPVVRNALFCLESAWKTAQEGDHGSHVYTKALLAYAFALAGNQDKRKEVLKSLNEEAVKKDNSVHWERPQKPKAPVGHFYEPQAPSAEVEMTSYVLLAYLTAQPAPTSEDLTSATNIVKWITKQQNAQGGFSSTQDTVVALHALSKYGAATFTRTGKAAQVTIQSSGTFSSKFQVDNNNRLLLQQVSLPELPGEYSMKVTGEGCVYLQTSLKYNILPEKEEFPFALGVQTLPQTCDEPKAHTSFQISLSVSYTGSRSASNMAIVDVKMVSGFIPLKPTVKMLERSNHVSRTEVSSNHVLIYLDKVSNQTLSLFFTVLQDVPVRDLKPAIVKVYDYYETDEFAIAEYNAPCSKDLGNA

What was measured:
[1] = tested on: AngII-induced retinal vascular permeability; assay: AngII-induced retinal vascular permeability in rats; format: in vivo, rat; settings: AngII and ASP-465 via 2 Alzet pumps for 3 days; vitreous fluorophotometry
Description: Rats were implanted with a single subcutaneous osmotic pump containing Ang II or two pumps containing AngII and ASP-465, as indicated. RVP was measured using vitreous fluorophotometry after 3 days.
RVP was measured using Evan's blue dye method after 7 days.
We examined the effect of the kallikrein inhibitor ASP-465 on RVP induced by angiotensin II (AngII).

[2] = tested on: astrocytes; assay: Plasma kallikrein-induced ERK phosphorylation in astrocytes; format: cell-based; settings: astrocytes exposed to plasma kallikrein
Text: (§1) We have also studied the effects of plasma kallikrein pathway activation on astrocytes. […] Exposure of astrocytes to plasma kallikrein potently stimulated ERK phosphorylation, and this action of kallikrein on astrocytes is not affected by B2-R antagonism (Hoe140). The effect of kallikrein on astrocytes was blocked by leupeptin, a protease inhibitor and C1-INH (data not shown). […] This is in contrast to the bradykinin effect, which is rapid and transient (data not shown). Plasma kallikrein's effect on ERK phosphorylation in astrocytes is dose dependent, reaching a maximal effect at 100 nM kallikrein (data not shown). […] In addition, plasma kallikrein binding to astrocytes was blocked by AS-440 (FIG. 9B) and C1-INH (data not shown).

[3] = tested on: blood-induced hematoma; assay: Hematoma after intracerebral infusion of autologous blood in diabetic rats; format: in vivo, Sprague-Dawley rats; settings: systemic treatment, 48 h after intracerebral infusion of autologous blood
Description: We have compared the response to intracerebral infusion of blood in Sprague-Dawley rats with 1 mo of STZ-induced diabetes with age matched non-diabetic control rats. Fifty μL of autologous whole blood was collected from the tail vein and immediately infused 1 mm anterior, 4 mm lateral and 6 mm in depth to the bregma using a 30 gauge needle at 20 μL per minute. The infusion needle was removed 10 min after injection and the burr hole was sealed with bone wax. Forty-eight hours after intracerebral injection, the animals were perfused with saline and surface hematoma area was examined by measurement of hematoma area relative to total hemisphere area.

[4] = tested on: bradykinin-induced RVP; assay: Bradykinin-induced RVP in rats (vitreous fluorophotometry); format: in vivo; settings: pretreatment 2 days, 12 ug/day/200 g rat, subcutaneous Alzet pump
Text: (§2) FIGS. 3A-3B are a set of two bar graphs that show the effects of intravitreal injection of kallikrein (FIG. 3A) and bradykinin (FIG. 3B) on RVP in rats measured using vitreous fluorophotometry. Activators of the kallikrein pathway, including purified activated plasma kallikrein, factor XII (FXII), high molecular weight kininogen (HK), and bradykinin, increase retinal vascular permeability (RVP) to fluorescein. In addition, inhibitors of the kallikrein pathway, such as complement I inhibitors and α2-macroglobulin reduced RVP. Direct injection of these kallikrein pathway activators into the vitreous was observed by SLO fundus imaging of the leakage from first phase fluorescein following bolus intravenous injection (FIG. 2) and by vitreous fluorophotometry, which measure the levels of fluorescein in the vitreous 30 min after intravenous injection (FIG. 5A). […] In addition, intravitreal injection of bradykinin can acutely increase RVP (FIGS. 2A and 2B). Moreover, pretreatment of rats for 2 days with Hoe140 (Bradykinin R2 antagonist, 12 ug/day/200 g rat delivered using a subcutaneous Alzet pump) inhibited bradykinin-induced RVP (FIG. 3B).

[5] = tested on: brain astrocytes; assay: Bradykinin-induced ERK phosphorylation in brain astrocytes; format: cell-based
Text: as §1

[6] = tested on: astrocytes; assay: Plasma kallikrein binding to astrocytes; format: cell-based
Text: as §1

[7] = tested on: retinal vascular permeability (RVP); assay: Retinal vascular permeability to fluorescein, kallikrein pathway inhibitors; settings: in vivo
Text: as §2, with “Activators” for “FIGS. 3A-3B are a set of two bar graphs that show the effects of intravitreal injection of kallikrein (FIG. 3A) and bradykinin (FIG. 3B) on RVP in rats measured using vitreous fluorophotometry. Activators”

Row | Molecule | effect of kallikrein on ERK phosphorylation [2] | RVP [7] | other results
1 | Cc1cc(C(=O)NCc2ccc(C(=N)N)cc2)c(C)n1Cc1ccncc1 [ASP-465, 2,5-Dimethyl-1-pyridin-4-ylmethyl-1H-pyrrole-3-carboxylic acid 4-carbamimidoyl-benzylamide] | – | – | RVP [1]: normal levels of RVP
2 | CC(=O)N[C@@H](CC(C)C)C(=O)N[C@@H](CC(C)C)C(=O)N[C@H](C=O)CCCNC(=N)N [leupeptin, reference compound] | blocked | – | –
3 | Hoe140 [reference compound] | not affected | – | hematoma area [3]: did not reduce; bradykinin-induced RVP [4]: inhibited; bradykinin-induced ERK phosphorylation [5]: blocked
4 | C1-INH: C1-Esterase inhibitor, a serpin; major inhibitor of the classical complement pathway, contact activation system and intrinsic coagulation | blocked | – | plasma kallikrein binding to astrocytes [6]: blocked
5 | B1 | – | reduced RVP | –
6 | B2 | – | reduced RVP | –
